Test results published in patent US12629363B2, “Prophylaxis and treatment of angioedema” (PHARVARIS GMBH, priority 2020, dated 2026).
Like-named read-outs stand apart in the source and are kept apart here.

How the values were obtained:
Plasma protein binding = assay type: in vitro ADME; conditions: human
rat B2 receptor = target: T1, rat B2 receptor (Rattus norvegicus, UniProt P25023); experiment: Antagonist potency in cells expressing rat B2 receptor; assay type: cell-based; conditions: compared with human B2 receptor
T1 construct: expressed in transfected cells
T1 sequence (P25023 1-396): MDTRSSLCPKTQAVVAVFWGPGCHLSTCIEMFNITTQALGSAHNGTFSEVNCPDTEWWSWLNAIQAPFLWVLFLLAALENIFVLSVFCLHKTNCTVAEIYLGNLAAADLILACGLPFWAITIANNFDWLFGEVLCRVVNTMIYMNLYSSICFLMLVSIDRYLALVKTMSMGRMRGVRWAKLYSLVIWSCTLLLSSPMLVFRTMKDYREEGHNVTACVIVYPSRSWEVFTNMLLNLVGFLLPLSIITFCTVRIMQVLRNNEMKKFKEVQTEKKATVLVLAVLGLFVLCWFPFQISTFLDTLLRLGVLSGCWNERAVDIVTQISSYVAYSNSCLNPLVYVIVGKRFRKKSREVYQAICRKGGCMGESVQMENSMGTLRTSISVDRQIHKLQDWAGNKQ
Source text: The bradykinin B2 receptor is well known for its species selective pharmacology (Paquet et al., Br. J. Pharmacol. (126), 1083-1090, 1999 (DOI: 10.1038/sj.bjp.0702403); Burgess et al., Br. J. Pharmacol. (129), 77-86, 2000 (DOI: 10.1038/sj.bjp.0703012)). […] Pharmacol. 11:916; DOI: 10.3389/fphar.2020.00916.

[1] = Ascending dose study 22-50 mg in healthy volunteers, PK (Example 4); assay type: in vivo, human
[2] = Drug-drug interaction trial with itraconazole, safety and tolerability (Example 5); assay type: in vivo, human; conditions: single 12 mg oral doses on Day 1 and Day 7 (with itraconazole)
Source text: Thirteen healthy subjects were enrolled and completed the study.

[3] = Single ascending dose study in healthy volunteers, safety and tolerability (Example 2); assay type: in vivo, human
Method: Safety was assessed by physical examination, vital signs, adverse events, safety laboratory and electrocardiogram (ECG) until 72 h post-dosing.

[4] = Single ascending dose study in healthy volunteers, plasma PK (Example 2); assay type: in vivo, human; conditions: for concentration at 0.25 h: read-out: C0.25h; for Vd/F: read-out: Vz/F
[5] = 22 to 50 mg (factor 2.27 increase), after a standardized breakfast
[6] = 22 mg, after HCHF breakfast, N = 6
[7] = 22 mg, HCHF breakfast vs fasted
[8] = human, plasma, oral, 1 mg, fasted, mean
[9] = human, plasma, oral, 2 mg, fasted, mean
[10] = human, plasma, oral, 4.5 mg, fasted, mean
[11] = human, plasma, oral, 12 mg, fasted, mean
[12] = human, plasma, oral, 22 mg, after HCHF breakfast, mean
[13] = human, plasma, oral, 22 mg, fasted, mean

SMILES: [2H][C@@](C)(NC(=O)COC(F)F)c1cc(F)cc(Cl)c1COc1cccc2c(-c3ncnn3C)cc(C)nc12 [compound of formula (I)]
- fraction unbound (Plasma protein binding): 0.038
- fold less potent in antagonizing the rat B2 receptor (rat B2 receptor): more than 1000 fold
- fold increase for mean AUC0-24h [1, 5]: 2.39 fold
- fold increase for mean Cmax [1, 5]: 2.37 fold
- dose proportionality of PK ([1]; 22 to 50 mg after a standardized breakfast): dose-proportional PK
- change in AUCinf after a standardized breakfast ([1]; compared to fasting conditions): did not show a significant change
- decrease in Cmax after a standardized breakfast ([1]; compared to fasting conditions): 40-50%
- C12h and C24h plasma concentration, fed vs fasting ([1]; human, in vivo): higher under fed conditions
- tolerability [2]: well tolerated with no related adverse events reported
- Any adverse effects ([3]; 1 mg, fasted, N = 6): 2 (33.3%) n (%)
- Any related adverse effects ([3]; 1 mg, fasted, N = 6): 0 n (%)
- Any serious adverse effects ([3]; 1 mg, fasted, N = 6): 0 n (%)
- Any adverse effects ([3]; 2 mg, fasted, N = 6): 1 (16.7%) n (%)
- Any related adverse effects ([3]; 2 mg, fasted, N = 6): 0 n (%)
- Any serious adverse effects ([3]; 2 mg, fasted, N = 6): 0 n (%)
- Any adverse effects ([3]; 4.5 mg, fasted, N = 6): 1 (16.7%) n (%)
- Any related adverse effects ([3]; 4.5 mg, fasted, N = 6): 0 n (%)
- Any serious adverse effects ([3]; 4.5 mg, fasted, N = 6): 0 n (%)
- Any adverse effects ([3]; 12 mg, fasted, N = 14): 5 (35.7%) n (%)
- Any related adverse effects ([3]; 12 mg, fasted, N = 14): 2 (14.3%) n (%)
- Any serious adverse effects ([3]; 12 mg, fasted, N = 14): 0 n (%)
- Any adverse effects [3, 6]: 1 (16.7%) n (%)
- Any related adverse effects [3, 6]: 0 n (%)
- Any serious adverse effects [3, 6]: 0 n (%)
- Any adverse effects ([3]; 22 mg, fasted, N = 14): 2 (14.3%) n (%)
- Any related adverse effects ([3]; 22 mg, fasted, N = 14): 1 (7.1%) n (%)
- Any serious adverse effects ([3]; 22 mg, fasted, N = 14): 0 n (%)
- subjects with treatment-related adverse events ([3]; 12 or 22 mg, gastrointestinal, mild severity): three
- blood pressure fluctuations and orthostatic hypotension ([3]; single oral doses up to 22 mg): no clinically relevant fluctuations of blood pressure and no orthostatic hypotension
- changes in hematology, clinical chemistry, vital signs, or ECG ([3]; single oral doses up to 22 mg): no apparent trends or dose-related changes
- safety and tolerability ([3]; single oral doses up to 22 mg): safe and well tolerated
- CL/F ([4]; 1 mg, fasted, mean): 42.3 L/h
- CL/F ([4]; 2 mg, fasted, mean): 33.8 L/h
- CL/F ([4]; 4.5 mg, fasted, mean): 37.6 L/h
- CL/F ([4]; 12 mg, fasted, mean): 40.9 L/h
- time therapeutically effective plasma levels maintained ([4]; 22 mg, HCHF breakfast cohort): more than 12 h
- time to reach therapeutically effective plasma levels ([4]; 22 mg, HCHF breakfast cohort): ≤ 15 min
- higher AUClast after HCHF breakfast [4, 7]: 49%
- lower Cmax after HCHF breakfast [4, 7]: 32%
- CL/F ([4]; 22 mg, after HCHF breakfast, mean): 25.3 L/h
- Mean (±SD) C12h ([4]; 22 mg, fasted): 8.34 ± 4.24 ng/mL
- Mean C24h ([4]; 22 mg, fasted): 1.12 ± 0.786 ng/mL
- CL/F ([4]; 22 mg, fasted, mean): 31.5 L/h
- time to reach therapeutic efficacious threshold plasma concentration ([4]; all doses): ≤ 15 min
- time plasma levels maintained at therapeutic efficacious threshold ([4]; doses of 12 mg and 22 mg): approximately 12 h
- Tmax ([4]; human, plasma, oral, 1 mg to 22 mg, fasting, read-out: Median tmax in the dose range): 0.5 to 1 h
- Tmax ([4]; human, plasma, oral, 1 mg to 22 mg, fasting, read-out: range of individual tmax values): 0.25 to 1.02 h
- AUC(0-t) [4, 8]: 33 ng·h/mL
- Cmax [4, 8]: 11.1 ng/mL
- concentration at 0.25 h [4, 8]: 5.99 ng/mL
- concentration at 12 h ([4]; human, plasma, oral, 1 mg, fasted, mean, read-out: C12h): 0.528 ng/mL
- Vd/F [4, 8]: 190 L
- half-life ([4]; human, plasma, oral, 1 mg, fasted, mean, read-out: t1/2 (converted)): 3.49 h
- Tmax ([4]; human, plasma, oral, 1 mg, fasted, median, read-out: tmax): 0.5 h
- AUC(0-t) [4, 9]: 66 ng·h/mL
- Cmax [4, 9]: 19.8 ng/mL
- concentration at 0.25 h [4, 9]: 12.9 ng/mL
- concentration at 12 h ([4]; human, plasma, oral, 2 mg, fasted, mean, read-out: C12h): 0.81 ng/mL
- Vd/F [4, 9]: 181 L
- half-life ([4]; human, plasma, oral, 2 mg, fasted, mean, read-out: t1/2 (converted)): 4.26 h
- Tmax ([4]; human, plasma, oral, 2 mg, fasted, median, read-out: tmax): 0.75 h
- AUC(0-t) [4, 10]: 129 ng·h/mL
- Cmax [4, 10]: 32.9 ng/mL
- concentration at 0.25 h [4, 10]: 13 ng/mL
- concentration at 12 h ([4]; human, plasma, oral, 4.5 mg, fasted, mean, read-out: C12h): 1.93 ng/mL
- Vd/F [4, 10]: 222 L
- half-life ([4]; human, plasma, oral, 4.5 mg, fasted, mean, read-out: t1/2 (converted)): 4.36 h
- Tmax ([4]; human, plasma, oral, 4.5 mg, fasted, median, read-out: tmax): 1 h
- AUC(0-t) [4, 11]: 369 ng·h/mL
- Cmax [4, 11]: 97.3 ng/mL
- concentration at 0.25 h [4, 11]: 60.3 ng/mL
- concentration at 12 h ([4]; human, plasma, oral, 12 mg, fasted, mean, read-out: C12h): 5.58 ng/mL
- Vd/F [4, 11]: 235 L
- half-life ([4]; human, plasma, oral, 12 mg, fasted, mean, read-out: t1/2 (converted)): 4.25 h
- Tmax ([4]; human, plasma, oral, 12 mg, fasted, median, read-out: tmax): 0.5 h
- Tmax ([4]; human, plasma, oral, 22 mg, HCHF breakfast vs fasted, read-out: delay of median tmax after HCHF breakfast): ~2 h
- AUC(0-t) [4, 12]: 1020 ng·h/mL
- Cmax [4, 12]: 145 ng/mL
- concentration at 0.25 h [4, 12]: 48.3 ng/mL
- concentration at 12 h ([4]; human, plasma, oral, 22 mg, after HCHF breakfast, mean, read-out: C12h): 19.6 ng/mL
- Vd/F [4, 12]: 180 L
- half-life ([4]; human, plasma, oral, 22 mg, after HCHF breakfast, mean, read-out: t1/2 (converted)): 5.31 h
- Tmax ([4]; human, plasma, oral, 22 mg, after HCHF breakfast, median, read-out: tmax): 3 h
- AUC(0-t) [4, 13]: 681 ng·h/mL
- Cmax [4, 13]: 213 ng/mL
- concentration at 0.25 h [4, 13]: 143 ng/mL
- concentration at 12 h ([4]; human, plasma, oral, 22 mg, fasted, mean, read-out: C12h): 8.34 ng/mL
- Vd/F [4, 13]: 252 L
- half-life ([4]; human, plasma, oral, 22 mg, fasted, mean, read-out: t1/2 (converted)): 5.61 h
- Tmax ([4]; human, plasma, oral, 22 mg, fasted, median, read-out: tmax): 0.75 h
- concentration at 12 h ([4]; human, plasma, oral, 22 mg, fed (HCHF breakfast), read-out: Mean (±SD) C12h): 19.6 ± 10.7 ng/mL
- concentration at 24 h ([4]; human, plasma, oral, 22 mg, fed (HCHF breakfast), read-out: Mean C24h): 5.39 ± 5.47 ng/mL
- half-life ([4]; human, plasma, po, single oral doses 1-22 mg, read-out: mean t1/2 between doses): 3.5 to 5.6 h
- dose proportionality of PK (Cmax, AUClast, AUCinf) ([4]; single oral dose 1 mg to 22 mg, fasting): Dose proportional PK
